Reference: US20250288543A1, “METHODS OF ENHANCING BENEFICIAL SHORT-CHAIN AND MEDIUM-CHAIN FATTY ACIDS PRODUCTION BY GUT MICROBIOME” (Arizona Board of Regents on Behalf of Arizona State …, priority 2024, published 2025)

Assays:
human colon microbiome = assay: In vitro bioreactors inoculated with human feces: chain elongation of acetate with ethanol or lactate to butyrate and caproate; format: cell-based; details: for Methane concentrations: bioreactor headspace, over 7 days, FIG. 4; for Production of MCFAs: pH 6.5 (descending colon), higher concentrations; for SCFA and MCFA production: varied conditions of the large intestine (pH 5.5 and 6.5), FIGS. 6A-6P
Excerpt: In microbial chain elongation, acetate, an abundant short-chain fatty acid in the colon, is elongated via reverse β-oxidation using a more reduced compound, such as ethanol or lactate to butyrate, caproate, and caprylate (C8). FIG. 1 depicts known microbial pathways for production of butyrate in the human colon. FIG. 2 depicts a proposed pathway for production of butyrate (and caproate). In vitro bioreactors were setup using feces composited from multiple human donors. Gas composition in the bioreactors' headspace was analyzed for H2, CO2, and CH4 using gas chromatography (GC). The concentrations of volatile fatty acids (VFAs), lactate, ethanol, were measured using high performance liquid chromatography (HPLC). 16S rRNA gene from Bacteria and Archaea was sequenced using the PacBio. The ability of the human colon microbiome to carry out chain elongation reactions was probed in bioreactor experiments. Bioreactors consisted of 120 mL glass serum bottles containing 50 mL of reduced anaerobic mineral medium prepared using the Hungate technique. The medium contained the following stock solutions per liter: 10 mL of salts, 1 mL of trace element A, 1 mL of trace element B, and 1 mL of vitamin mix. Sodium sulfide nonahydrate (0.2 mM) and L-cysteine (0.4 mM) were used as reducing agents. The medium was buffered with 15 mM 4-(2-hydroxyethyl)-1-piperazineethanesulfonic acid (HEPES) and 15 mM sodium bicarbonate. The medium pH was adjusted to 5.5 or 6.5 using a 10 N NaOH solution. The medium was bottled using a gas composition of 20% CO2 and 80% N2. The experimental conditions and controls are shown in Table 1 and were tested in triplicate. The tested concentrations of short-chain fatty acids (60 mM acetate, 20 mM propionate, 20 mM butyrate) are within the typical range detected in the human colon. For ethanol and lactate (electron donors in chain elongation), we tested 4 mM, a low but physiological relevant concentration and a high concentration of 40 mM. The high concentration of ethanol (40 mM) was selected based on existing chain elongation literature (Yin et al. 2017; Coma et al. 2016; […], and Buisman 2008; Robles et al. 2021; Joshi et al. 2021) and was strategically employed to enhance the activity of putative chain-elongating microorganisms. […] The slurry was prepared by mixing one-part reduced anaerobic mineral medium and one-part feces from a composite sample containing fecal samples from multiple healthy donors as described in the Supporting Information. In one condition, the fecal slurry was filtered through a 200 μm filter before inoculation. In condition with 60 mM acetate+40 mM ethanol+MCE culture at pH 6.5, a chain elongation culture derived from soil (Joshi et al. 2021) was also inoculated. The pH was measured using 0.5 mL samples using an OrionTM Versa Star ProTM Benchtop pH Meter (Thermo Scientific, Waltham, MA, USA) equipped with an Orion economy series pH electrode. The pH meter was calibrated with Orion pH 4.01, 7.00, and 10.01 standard solutions. Samples for HPLC consisted of 0.5 mL of supernatant from bioreactors filtered through a 0.2 μm PDVF filter (MDI Membrane Technologies, Harrisburg, PA, USA). The concentrations of formate, acetate, propionate, isobutyrate, butyrate, isovalerate, valerate, isocaproate, caproate, heptanoate, lactate, ethanol, butanol, and hexanol were determined using a high-performance liquid chromatograph (HPLC, Agilent, Santa Clara, CA, USA) with a photodiode array detector (DAD) set at 210 nm and a refractive index detector (RID). The HPLC was fitted with an Aminex HPX-87H column 300×7.8 mm (Bio-Rad Laboratories, Hercules, CA, USA) and operated with an eluent of 2.5 mM H2SO4 at a flow rate of 0.6 mL per minute for a duration of 80 minutes. The oven temperature was constant at […]. The calibration range for fatty acids was 0.25-10 mM, and the calibration range for the alcohols was 2.5-50 mM. […]

[1] = mechanism related to vagal afferent; cited from earlier work
[2] = rat model of diabetes, hexanoate as sole FA source; cited from earlier work
[3] = physiologically relevant concentration of ethanol and lactate, FIGS. 5A and 5B

SMILES | Methane concentrations (human colon microbiome) | Production of MCFAs (human colon microbiome) | Butyrate production via chain elongation (human colon microbiome; [3]) | SCFA and MCFA production (human colon microbiome) | Efficacy in suppressing food intake (rank order) [1] | further results
CCO [ethanol] | higher at higher concentrations | significant increase | occurred | successfully increases |  | Conversion of acetate and ethanol to butyrate and caproate via chain elongation, time of occurrence (human colon microbiome; acetate + ethanol, fecal bioreactors, FIGS. 3A and 3B): within one day; Chain elongation activity with filtered feces (human colon microbiome; acetate + ethanol, feces filtered to remove larger particles, FIGS. 3C and 3D): did not affect the chain elongation activity; Caproate production (human colon microbiome; [3]): caproate was produced only when ethanol was the electron donor
CCC(=O)O [propionate] |  |  |  |  | butyrate>propionate>acetate | 
CCCCCC(=O)O [caproic, caproic acid] |  |  |  |  |  | Contractile function of hearts perfused with glucose alone [2]: normalized contractile function
CC(O)C(=O)O (stereo not shown) [lactate] | higher at higher concentrations | significant increase | occurred | successfully increases |  | Metabolites produced with lactate as the electron donor (human colon microbiome; acetate + lactate, FIG. 3B): metabolic shift was observed towards propionate and butyrate production; Production of butyrate and other SCFAs via chain elongation (human colon microbiome; pH 5.5 (ascending colon)): a better substrate
CC(=O)O [acetate] |  |  |  |  | butyrate>propionate>acetate | 
